Test results taken from ChEMBL document CHEMBL4385617 (Bioorg Med Chem Lett, 2019).

Assays:
[1] = Inhibition of recombinant Stenotrophomonas maltophilia K279a L1 expressed in Escherichia coli using FC-5 as substrate by fluorescence method
[2] = Inhibition of recombinant bacterial IMP-1 expressed in Escherichia coli assessed as reduction in breakdown of cephalosporin FC-5 by fluorescence method; set-up: species or system Bacteria
[3] = Inhibition of recombinant bacterial NDM-1 expressed in Escherichia coli assessed as reduction in breakdown of cephalosporin FC-5 by fluorescence method; set-up: species or system Bacteria
[4] = Inhibition of recombinant bacterial CphA expressed in Escherichia coli assessed as reduction in hydrolysis of meropenem by UV spectrophotometeric analysis; set-up: species or system Bacteria
[5] = Inhibition of recombinant bacterial KPC-2 expressed in Escherichia coli assessed as reduction in breakdown of cephalosporin FC-5 by fluorescence method; set-up: species or system Bacteria
[6] = Inhibition of recombinant bacterial VIM-1 expressed in Escherichia coli assessed as reduction in breakdown of cephalosporin FC-5 by fluorescence method; set-up: species or system Bacteria
[7] = Inhibition of recombinant Escherichia coli OXA-48 assessed as reduction in breakdown of cephalosporin FC-5 in presence of 100 mM NaHCO3 by fluorescence method
Bacteria = experiment: Inhibition of bacterial expressed in Escherichia coli OXA-10 assessed as reduction in breakdown of cephalosporin FC-5 at 400 uM by fluorescence method
[8] = molecular target: Metallo-beta-lactamase type 2 (Klebsiella pneumoniae) (UniProt C7C422); experiment: Inhibition of NDM1 in Klebsiella pneumoniae B68-1 clinical isolate assessed as potentiation of meropenem-induced antibacterial activity by measuring meropenem MIC at 8 ug/ml by broth microdilution method (Rvb > 64 ug/ml)
Chain of Metallo-beta-lactamase type 2 (Klebsiella pneumoniae) (C7C422 whole entry): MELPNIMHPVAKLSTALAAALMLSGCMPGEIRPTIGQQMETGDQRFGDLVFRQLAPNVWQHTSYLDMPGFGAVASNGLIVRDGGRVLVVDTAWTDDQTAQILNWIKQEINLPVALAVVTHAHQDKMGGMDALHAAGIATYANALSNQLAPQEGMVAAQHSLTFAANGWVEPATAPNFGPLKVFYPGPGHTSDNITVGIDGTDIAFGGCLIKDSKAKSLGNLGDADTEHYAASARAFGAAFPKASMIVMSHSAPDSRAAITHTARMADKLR

[9] = Inhibition of recombinant bacterial OXA-10 expressed in Escherichia coli assessed as reduction in breakdown of cephalosporin FC-5 by fluorescence method; set-up: species or system Bacteria
Escherichia coli [10] = experiment: Inhibition of NDM1 in Escherichia coli S117 clinical isolate assessed as potentiation of meropenem-induced antibacterial activity by measuring meropenem MIC at 8 ug/ml by broth microdilution method (Rvb > 64 ug/ml)
[11] = molecular target: Metallo-beta-lactamase type 2 (Klebsiella pneumoniae) (UniProt C7C422); experiment: Inhibition of NDM1 in Klebsiella pneumoniae IR43 clinical isolate assessed as potentiation of meropenem-induced antibacterial activity by measuring meropenem MIC at 8 ug/ml by broth microdilution method (Rvb > 64 ug/ml)
[12] = Inhibition of recombinant Escherichia coli OXA-10 assessed as reduction in breakdown of cephalosporin FC-5 in presence of 100 mM NaHCO3 by fluorescence method
Escherichia coli [13] = experiment: Inhibition of NDM1 in Escherichia coli IR57 clinical isolate assessed as potentiation of meropenem-induced antibacterial activity by measuring meropenem MIC at 8 ug/ml by broth microdilution method (Rvb > 64 ug/ml)
[14] = molecular target: Metallo-beta-lactamase type 2 (Klebsiella pneumoniae) (UniProt C7C422); experiment: Inhibition of NDM1 in Klebsiella pneumoniae B64 clinical isolate assessed as potentiation of meropenem-induced antibacterial activity by measuring meropenem MIC at 8 ug/ml by broth microdilution method (Rvb > 64 ug/ml)
Escherichia coli [15] = experiment: Inhibition of NDM1 in Escherichia coli 91N clinical isolate assessed as potentiation of meropenem-induced antibacterial activity by measuring meropenem MIC at 8 ug/ml by broth microdilution method (Rvb > 64 ug/ml)

| inhibition (Bacteria) [%] | MIC [8] [µg/mL] | IC50 [9] [nM] | MIC (Escherichia coli [10]) [µg/mL] | MIC [11] [µg/mL] | IC50 [12] [nM] | MIC (Escherichia coli [13]) [µg/mL] | MIC [14] [µg/mL] | MIC (Escherichia coli [15]) [µg/mL] | Structure (SMILES) | IC50 [1] | IC50 [2] [nM] | IC50 [3] [nM] | IC50 [4] [nM] | IC50 [5] [nM] | IC50 [6] [nM] | IC50 [7] [nM] |
| --- | --- | --- | --- | --- | --- | --- | --- | --- | --- | --- | --- | --- | --- | --- | --- | --- |
| – | – | – | – | – | – | – | – | – | NCc1ccc(C(=O)N[C@H]2Cc3cccc(C(=O)O)c3OB2O)cc1 | Not Active | 1000 | 29 | > 100000 | 30 | 85 | 2600 |
| < 50 | > 64 | > 400000 | > 64 | > 64 | > 400000 | > 64 | > 64 | > 64 | O=C(O)C[C@@H]1CC[C@H](NC(=O)Cc2cccs2)B(O)O1 [VABORBACTAM] | – | – | – | – | – | – | – |
